From patent US11993599B2, “Therapeutic compounds” (Genentech, Inc., priority 2021, dated 2024)

Key:
[1] = target: T1, BRG1 (Homo sapiens, UniProt P51532); test: Immunofluorescence assay for BRG1 degradation in SW1573 cells; assay type: cell-based; details: 20 hours incubation; for DC50: immunofluorescence mean nuclear signal, read-out: BRG1 IF Degradation IC50; for Dmax: SW1573, 20 h, normalized to a known degrader control, read-out: BRG1 IF Degradation Sinf (%)
T1 construct: either BRM primary antibody (Cell signaling Cat #11966) or BRG primary antibody (Abcam, ab 110641); endogenous in cells; host or cells: SW1573
Protocol: (§1) Example B-2: Immunofluorescence Assay for BRM and BRG1 Degraders
(§2) SW1573 cells were seeded at 3000 cells/well in 384 well plates. The next day, compounds were added using an Echo dispenser. After 20 hours of incubation with compound, cells were fixed with 4% formaldehyde then permeabilized with 0.2% Triton X-100 and blocked with 10% FCS. Fixed and permeabilized cells were treated overnight at 4° C. with either BRM primary antibody (Cell signaling Cat #11966) or BRG primary antibody (Abcam, ab 110641). Finally, cells were treated with fluorescently labeled secondary antibodies for 1 hr (Donkey anti-Rabbit IgG AF488, Life Technologies, A21206) and Hoechst nuclear stain (#H3569) was added for 30 minutes. Cells were washed with PBS in between each step and before imaging on an Opera Phenix microscope (Perkin Elmer). Harmony software (Perking Elmer) was used to quantify the mean nuclear signaling intensity of BRM or BRG signaling per cell in each well. Dose responses were determined from the concentration dependent response of mean nuclear signal intensity with data normalized to a known degrader control. Dose response curves were fit to a floating maximum to allow for calculation of the Dmax.
(§3) Note that, in Table 5, the “Compound Number” corresponds to that used in Table 1. In Table 5, for BRM and BRG1 IF degradation IC50 (μM): A indicates <0.010 μM, B indicates 0.010-0.10 μM, and C indicates >0.10 μM; and for BRM and BRG1 IF degradation Sinf % D indicates 0-−30%, E indicates −30%-−70%, F indicates −71%-−120% and ND indicates the value was not determined.

[2] = target: BRM (Homo sapiens, UniProt P51531); test: Immunofluorescence assay for BRM degradation in SW1573 cells; assay type: cell-based; set-up: treated overnight at 4° C. with either BRM primary antibody (Cell signaling Cat #11966) or BRG primary antibody; endogenous in cells; host or cells: SW1573; details: 20 hours incubation; for DC50: immunofluorescence mean nuclear signal, read-out: BRM IF Degradation IC50; for BRM IF Degradation Sinf (%): normalized to a known degrader control
Protocol: as §1, §2, §3

Chain of BRM (P51531 whole entry): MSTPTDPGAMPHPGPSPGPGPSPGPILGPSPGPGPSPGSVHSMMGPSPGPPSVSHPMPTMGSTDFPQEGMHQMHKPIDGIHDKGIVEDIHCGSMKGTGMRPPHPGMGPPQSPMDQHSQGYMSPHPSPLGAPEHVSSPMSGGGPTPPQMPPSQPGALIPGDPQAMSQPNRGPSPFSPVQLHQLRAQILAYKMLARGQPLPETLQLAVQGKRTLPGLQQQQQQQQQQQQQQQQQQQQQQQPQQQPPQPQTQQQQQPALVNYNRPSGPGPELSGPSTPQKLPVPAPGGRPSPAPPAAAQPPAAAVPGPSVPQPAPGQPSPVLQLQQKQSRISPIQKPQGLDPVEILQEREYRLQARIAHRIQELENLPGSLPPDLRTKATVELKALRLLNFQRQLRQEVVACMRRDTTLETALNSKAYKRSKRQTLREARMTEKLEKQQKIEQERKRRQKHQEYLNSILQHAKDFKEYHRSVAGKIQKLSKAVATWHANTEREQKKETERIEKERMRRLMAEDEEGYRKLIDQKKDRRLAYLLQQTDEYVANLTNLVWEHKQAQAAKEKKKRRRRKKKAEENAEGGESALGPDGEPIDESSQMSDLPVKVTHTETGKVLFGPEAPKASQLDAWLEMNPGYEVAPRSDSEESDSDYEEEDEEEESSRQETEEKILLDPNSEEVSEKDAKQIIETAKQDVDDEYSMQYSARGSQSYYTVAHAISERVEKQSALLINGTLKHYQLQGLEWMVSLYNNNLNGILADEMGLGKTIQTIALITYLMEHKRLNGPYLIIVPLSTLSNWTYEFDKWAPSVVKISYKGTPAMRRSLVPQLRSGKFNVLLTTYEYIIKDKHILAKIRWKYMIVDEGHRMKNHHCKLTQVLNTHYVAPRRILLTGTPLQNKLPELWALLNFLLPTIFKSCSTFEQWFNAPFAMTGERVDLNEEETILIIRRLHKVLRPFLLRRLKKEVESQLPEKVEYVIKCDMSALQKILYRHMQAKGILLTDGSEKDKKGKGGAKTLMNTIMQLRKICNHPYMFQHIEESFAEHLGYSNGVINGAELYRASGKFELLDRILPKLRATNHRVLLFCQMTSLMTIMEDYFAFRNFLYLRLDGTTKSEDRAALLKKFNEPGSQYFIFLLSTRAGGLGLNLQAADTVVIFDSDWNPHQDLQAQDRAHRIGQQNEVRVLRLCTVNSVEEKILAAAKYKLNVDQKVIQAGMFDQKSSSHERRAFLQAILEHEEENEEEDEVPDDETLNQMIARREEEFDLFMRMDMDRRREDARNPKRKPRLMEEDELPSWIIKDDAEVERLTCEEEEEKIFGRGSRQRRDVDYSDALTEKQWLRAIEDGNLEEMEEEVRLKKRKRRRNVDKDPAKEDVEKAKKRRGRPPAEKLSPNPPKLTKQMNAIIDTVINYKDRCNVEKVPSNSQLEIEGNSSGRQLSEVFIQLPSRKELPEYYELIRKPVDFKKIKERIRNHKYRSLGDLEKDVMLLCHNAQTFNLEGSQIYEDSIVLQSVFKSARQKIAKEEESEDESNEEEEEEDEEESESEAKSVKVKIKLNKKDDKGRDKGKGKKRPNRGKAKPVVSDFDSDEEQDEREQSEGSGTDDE
T1 sequence (P51532 whole entry): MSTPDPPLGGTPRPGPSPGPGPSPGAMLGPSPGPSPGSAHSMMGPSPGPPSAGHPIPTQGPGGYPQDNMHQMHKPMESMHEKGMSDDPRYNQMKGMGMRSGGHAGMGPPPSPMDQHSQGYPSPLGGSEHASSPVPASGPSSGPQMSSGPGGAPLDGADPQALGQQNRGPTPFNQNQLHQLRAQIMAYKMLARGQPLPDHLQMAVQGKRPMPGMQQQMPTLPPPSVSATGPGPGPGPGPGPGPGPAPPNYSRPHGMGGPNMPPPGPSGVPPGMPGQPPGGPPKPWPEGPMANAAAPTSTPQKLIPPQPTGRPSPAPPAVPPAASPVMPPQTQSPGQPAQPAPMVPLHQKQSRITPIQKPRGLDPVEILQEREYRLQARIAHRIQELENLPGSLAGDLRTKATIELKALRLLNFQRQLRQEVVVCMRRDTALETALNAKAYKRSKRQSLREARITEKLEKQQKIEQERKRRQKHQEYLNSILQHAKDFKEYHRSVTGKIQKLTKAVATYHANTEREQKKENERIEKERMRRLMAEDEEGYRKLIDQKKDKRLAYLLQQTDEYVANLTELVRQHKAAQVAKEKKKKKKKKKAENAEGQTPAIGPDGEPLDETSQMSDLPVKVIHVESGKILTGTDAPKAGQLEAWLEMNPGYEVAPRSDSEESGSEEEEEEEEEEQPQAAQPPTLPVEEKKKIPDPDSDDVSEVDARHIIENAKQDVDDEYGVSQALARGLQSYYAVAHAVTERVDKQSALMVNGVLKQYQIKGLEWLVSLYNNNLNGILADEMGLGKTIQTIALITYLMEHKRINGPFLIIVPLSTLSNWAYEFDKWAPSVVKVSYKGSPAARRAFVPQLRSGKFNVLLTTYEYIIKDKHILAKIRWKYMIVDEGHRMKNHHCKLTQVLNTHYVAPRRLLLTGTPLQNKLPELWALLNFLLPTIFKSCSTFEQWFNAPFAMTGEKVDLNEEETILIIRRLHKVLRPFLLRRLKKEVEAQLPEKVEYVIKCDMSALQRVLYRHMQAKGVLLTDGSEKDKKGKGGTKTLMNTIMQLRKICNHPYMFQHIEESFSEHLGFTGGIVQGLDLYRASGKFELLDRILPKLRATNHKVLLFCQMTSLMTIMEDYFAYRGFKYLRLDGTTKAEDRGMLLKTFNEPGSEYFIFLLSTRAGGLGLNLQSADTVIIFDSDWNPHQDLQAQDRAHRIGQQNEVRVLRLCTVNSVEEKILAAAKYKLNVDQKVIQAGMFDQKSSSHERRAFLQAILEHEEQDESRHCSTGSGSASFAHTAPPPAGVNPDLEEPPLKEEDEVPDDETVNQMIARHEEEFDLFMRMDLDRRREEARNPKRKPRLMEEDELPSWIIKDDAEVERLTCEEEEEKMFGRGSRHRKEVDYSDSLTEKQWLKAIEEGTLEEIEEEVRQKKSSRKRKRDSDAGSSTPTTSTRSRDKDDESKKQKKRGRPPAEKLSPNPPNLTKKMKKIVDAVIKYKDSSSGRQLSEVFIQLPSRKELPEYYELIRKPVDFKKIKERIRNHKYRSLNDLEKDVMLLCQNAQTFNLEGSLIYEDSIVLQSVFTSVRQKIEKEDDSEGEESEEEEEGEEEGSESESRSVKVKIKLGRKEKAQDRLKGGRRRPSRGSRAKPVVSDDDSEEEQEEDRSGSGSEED

| SMILES | DC50 [1] [nM] | Dmax [1] [%] | DC50 [2] [nM] | BRM IF Degradation Sinf (%) [2] |
| --- | --- | --- | --- | --- |
| Nc1nnc(-c2ccccc2O)cc1N1CC2CCC(C1)N2c1ccnc(C#CCN2CCCCCC2CO)c1 (centres unmarked) [Compound 216, 2-[6-amino-5-[8-[2-[3-[2-(hydroxymethyl)azepan-1-yl]prop-1-ynyl]-4-pyridyl]-3,8-diazabicyclo[3.2.1]octan-3-yl]pyridazin-3-yl]phenol] | < 10 | 71 to 120 | < 10 | F (F indicates −71%-−120%) |
| Nc1nnc(-c2ccccc2O)cc1N1CC2CCC(C1)N2c1ccnc(C#CCN2CC3CC3(CO)C2)c1 (centres unmarked) [Compound 137, 2-[6-amino-5-[8-[2-[3-[1-(hydroxymethyl)-3-azabicyclo[3.1.0]hexan-3-yl]prop-1-ynyl]-4-pyridyl]-3,8-diazabicyclo[3.2.1]octan-3-yl]pyridazin-3-yl]phenol] | < 10 | 30 to 70 | < 10 | E (E indicates −30%-−70%) |
| Nc1nnc(-c2ccccc2O)cc1N1CC2CCC(C1)N2c1ccnc(C#CCN2CCC(N3CCOCC3)C2)c1 (centres unmarked) [Compound 80, 2-[6-amino-5-[8-[2-[3-(3-morpholinopyrrolidin-1-yl)prop-1-ynyl]-4-pyridyl]-3,8-diazabicyclo[3.2.1]octan-3-yl]pyridazin-3-yl]phenol] | < 10 | 0 to 30 | 10 to 100 | E (E indicates −30%-−70%) |
| CC1(C)CC(O)C(O)CN(CC#Cc2cc(N3C4CCC3CN(c3cc(-c5ccccc5O)nnc3N)C4)ccn2)C1 (centres unmarked) [Compound 210, 1-[3-[4-[3-[3-amino-6-(2-hydroxyphenyl)pyridazin-4-yl]-3,8-diazabicyclo[3.2.1]octan-8-yl]-2-pyridyl]prop-2-ynyl]-6,6-dimethyl-azepane-3,4-diol] | > 100 |  | > 100 | E (E indicates −30%-−70%) |
| Nc1nnc(-c2ccccc2O)cc1N1CC2CCC(C1)N2c1ccnc(C#CCN2CCc3ccccc3CC2)c1 [Compound 202, 2-[6-amino-5-[8-[2-[3-(1,2,4,5-tetrahydro-3-benzazepin-3-yl)prop-1-ynyl]-4-pyridyl]-3,8-diazabicyclo[3.2.1]octan-3-yl]pyridazin-3-yl]phenol] | 10 to 100 | 30 to 70 | 10 to 100 | E (E indicates −30%-−70%) |
| Nc1nnc(-c2ccccc2O)cc1N1CC2CCC(C1)N2c1ccnc(C#CCN2CCCC(O)CC2)c1 (centres unmarked) [Compound 191, 1-[3-[4-[3-[3-amino-6-(2-hydroxyphenyl)pyridazin-4-yl]-3,8-diazabicyclo[3.2.1]octan-8-yl]-2-pyridyl]prop-2-ynyl]azepan-4-ol] | < 10 | 71 to 120 | < 10 | F (F indicates −71%-−120%) |
| Nc1nnc(-c2ccccc2O)cc1N1CC2CCC(C1)N2c1ccnc(C#CCN2CCC3CC32)c1 (centres unmarked) [Compound 87, 2-[6-amino-5-[8-[2-[3-(2-azabicyclo[3.1.0]hexan-2-yl)prop-1-ynyl]-4-pyridyl]-3,8-diazabicyclo[3.2.1]octan-3-yl]pyridazin-3-yl]phenol] | < 10 | 30 to 70 | < 10 | E (E indicates −30%-−70%) |
| CC1CN(CC#Cc2cc(N3C4CCC3CN(c3cc(-c5ccccc5O)nnc3N)C4)ccn2)CC(C)O1 (centres unmarked) [Compound 79, 2-[6-amino-5-[8-[2-[3-(2,6-dimethylmorpholin-4-yl)prop-1-ynyl]-4-pyridyl]-3,8-diazabicyclo[3.2.1]octan-3-yl]pyridazin-3-yl]phenol] | > 100 |  | 10 to 100 | E (E indicates −30%-−70%) |
| Nc1nnc(-c2ccccc2O)cc1N1CC2CCC(C1)N2c1ccnc(C#CCN2C[C@@H]3C[C@H]2C[C@H]3O)c1 [Compound 130, (1S,4S,5R)-2-[3-[4-[3-[3-amino-6-(2-hydroxyphenyl)pyridazin-4-yl]-3,8-diazabicyclo[3.2.1]octan-8-yl]-2-pyridyl]prop-2-ynyl]-2-azabicyclo[2.2.1]heptan-5-ol] | 10 to 100 | 30 to 70 | < 10 | E (E indicates −30%-−70%) |
| C[C@@H]1CN(CC#Cc2cc(N3C4CCC3CN(c3cc(-c5ccccc5O)nnc3N)C4)ccn2)C[C@H](C)O1 [Compound 59, 2-[6-amino-5-[8-[2-[3-[(2S,6R)-2,6-dimethylmorpholin-4-yl]prop-1-ynyl]-4-pyridyl]-3,8-diazabicyclo[3.2.1]octan-3-yl]pyridazin-3-yl]phenol] | < 10 | 0 to 30 | 10 to 100 | E (E indicates −30%-−70%) |
| Nc1nnc(-c2ccccc2O)cc1N1CC2CCC(C1)N2c1ccnc(C#CCN2CC3CCCC2C3)c1 (centres unmarked) [Compound 125, 2-[6-amino-5-[8-[2-[3-(6-azabicyclo[3.2.1]octan-6-yl)prop-1-ynyl]-4-pyridyl]-3,8-diazabicyclo[3.2.1]octan-3-yl]pyridazin-3-yl]phenol] | < 10 | 30 to 70 | < 10 | E (E indicates −30%-−70%) |
| Nc1nnc(-c2ccccc2O)cc1N1CC2CCC(C1)N2c1ccnc(C#CCN2CCCC23CCC3)c1 [Compound 106, 2-[6-amino-5-[8-[2-[3-(5-azaspiro[3.4]octan-5-yl)prop-1-ynyl]-4-pyridyl]-3,8-diazabicyclo[3.2.1]octan-3-yl]pyridazin-3-yl]phenol] | < 10 | 30 to 70 | < 10 | E (E indicates −30%-−70%) |
| COCC1CCCCN1CC#Cc1cc(N2C3CCC2CN(c2cc(-c4ccccc4O)nnc2N)C3)ccn1 (centres unmarked) [Compound 41, 2-[6-amino-5-[8-[2-[3-[2-(methoxymethyl)-1-piperidyl]prop-1-ynyl]-4-pyridyl]-3,8-diazabicyclo[3.2.1]octan-3-yl]pyridazin-3-yl]phenol] | 10 to 100 | 30 to 70 | 10 to 100 | E (E indicates −30%-−70%) |
| Nc1nnc(-c2ccccc2O)cc1N1CC2CCC(C1)N2c1ccnc(C#CCN2CC3(COCCO3)C2)c1 [Compound 160, 2-[6-amino-5-[8-[2-[3-(5,8-dioxa-2-azaspiro[3.5]nonan-2-yl)prop-1-ynyl]-4-pyridyl]-3,8-diazabicyclo[3.2.1]octan-3-yl]pyridazin-3-yl]phenol] | 10 to 100 | 0 to 30 | 10 to 100 | E (E indicates −30%-−70%) |
| Nc1nnc(-c2ccccc2O)cc1N1CC2CCC(C1)N2c1ccnc(C#CCN2CCOC(CF)C2)c1 (centres unmarked) [Compound 114, 2-[6-amino-5-[8-[2-[3-[2-(fluoromethyl)morpholin-4-yl]prop-1-ynyl]-4-pyridyl]-3,8-diazabicyclo[3.2.1]octan-3-yl]pyridazin-3-yl]phenol] | > 100 |  | 10 to 100 | E (E indicates −30%-−70%) |
| Nc1nnc(-c2ccccc2O)cc1N1CC2CCC(C1)N2c1ccnc(C#CCNC(=O)C2CCNCC2)c1 [Compound 35, N-[3-[4-[3-[3-amino-6-(2-hydroxyphenyl)pyridazin-4-yl]-3,8-diazabicyclo[3.2.1]octan-8-yl]-2-pyridyl]prop-2-ynyl]piperidine-4-carboxamide] | > 100 |  | > 100 | E (E indicates −30%-−70%) |
| Nc1nnc(-c2ccccc2O)cc1N1CC2CCC(C1)N2c1ccnc(C#CCN2CCC3(CCCC3)C2)c1 [Compound 127, 2-[6-amino-5-[8-[2-[3-(2-azaspiro[4.4]nonan-2-yl)prop-1-ynyl]-4-pyridyl]-3,8-diazabicyclo[3.2.1]octan-3-yl]pyridazin-3-yl]phenol] | < 10 | 30 to 70 | < 10 | E (E indicates −30%-−70%) |
| Nc1nnc(-c2ccccc2O)cc1N1CC2CCC(C1)N2c1ccnc(C#CCN2CC3COCC(C2)C3O)c1 (centres unmarked) [Compound 83, 7-[3-[4-[3-[3-amino-6-(2-hydroxyphenyl)pyridazin-4-yl]-3,8-diazabicyclo[3.2.1]octan-8-yl]-2-pyridyl]prop-2-ynyl]-3-oxa-7-azabicyclo[3.3.1]nonan-9-ol] | 10 to 100 | 30 to 70 | > 100 | E (E indicates −30%-−70%) |
| Nc1nnc(-c2ccccc2O)cc1N1CC2CCC(C1)N2c1ccnc(C#CCN2CCn3cncc3C2)c1 [Compound 72, 2-[6-amino-5-[8-[2-[3-(6,8-dihydro-5H-imidazo[1,5-a]pyrazin-7-yl)prop-1-ynyl]-4-pyridyl]-3,8-diazabicyclo[3.2.1]octan-3-yl]pyridazin-3-yl]phenol] | > 100 |  | 10 to 100 | E (E indicates −30%-−70%) |
